Assays:
As #41 [1] = experiment: RIA (Assay 2): competition with iodinated inhibin for As #41; format: binding, sheep; conditions: for As#41 ED50: biotinylated peptides, 50% fall in binding of iodinated inhibin; for ED50 values As#41: non-biotinylated peptides, hr-inhibin A as standard
Excerpt: (§1) This assay was used to determine which peptides compete with iodinated 30 kDa inhibin for As #41, #128 and #1989 (used in the original inhibin RIA, Lapphorn et al., 1989, supra) in a RIA format. This assay identifies those peptides that bind to inhibin-binding antibodies in the antiserum and provides a stricter affinity and specificity assessment in identifying the appropriate epitopes than that found with Assay 1. The competition between peptide and hr-inhibin (used as the standard) was assessed from their ED50 values. The RIA consisted of the competition of iodinated inhibin and either hr-inhibin reference preparation, individual peptides or pools from the 4 peptide regions, with As #41, #128 and in some instances, As #1989. The peptides/inhibin/iodinated inhibin and antisera (at a prescribed dilution) were incubated overnight at 4° C. using standard methodologies. The antibody-bound iodinated inhibin was immunoprecipitated with the addition of an anti-sheep IgG serum raised in goats and the radioactivity was measured in a gamma counter. The concentration of peptide that gives a 50% fall in binding of iodinated inhibin (ED50) was determined and this value was used to give a measure of the affinity of the peptide for the antiserum. This methodology consisted of determining the ED50 of the peptide in the RIA using iodinated human recombinant inhibin as tracer with either As #41, As #128 or As #1989 and graded doses of either hr-inhibin or peptide as described in Example 2.

As #128 [2] = experiment: RIA (Assay 2): competition with iodinated inhibin for As #128; format: binding, sheep; conditions: for As#128 ED50: biotinylated peptides, 50% fall in binding of iodinated inhibin; for ED50 values As#128: non-biotinylated peptides, hr-inhibin A as standard
Excerpt: as §1

As #1989 = experiment: RIA (Assay 2): competition with iodinated inhibin for As #1989; format: binding, rabbit; conditions: for As#1989 ED50: 50% fall in binding of iodinated inhibin; for ED50 values As#1989: non-biotinylated peptides, hr-inhibin A as standard
Excerpt: as §1

PO-12 [3] = experiment: Solid phase binding of Set 2 peptides to PO-12; set-up: species or system mouse; key: +++; ΦΦΦ strong effect; +, Φ weak effect; conditions: Set 2 biotinylated peptides 24 micromoles/L
Procedure: (§2) The binding of the 41 biotinylated peptides as set forth in Table 7 (peptide set 2) to the mouse monoclonal antibodies (PO# series) was assessed as follows:
(§3) a) Assay 1 (solid phase assay). The assay was undertaken as outlined in assay 1 of Example 2. Biotinylated peptides (24 micromoles/L) were initially bound to streptavidin-coated plates. Mab (at an appropriate dilution to give a detectable response, 1:1000, 1:10000 dilution of the culture medium) was then added and incubated for 1.5 hr. The amount of bound Mab was determined using horseradish peroxidase-bound anti-mouse IgG serum and enzyme activity detected at 450-630 nm using an ELISA plate reader.

PO-14 [4] = experiment: Solid phase binding of Set 2 peptides to PO-14; set-up: species or system mouse; key: +++; ΦΦΦ strong effect; +, Φ weak effect; conditions: Set 2 biotinylated peptides 24 micromoles/L
Procedure: as §2, §3

PO-14 [5] = experiment: RIA of Set 2 peptides with PO-14; format: binding, mouse; conditions: Set 2 biotinylated peptides 0.8 and 0.08 micromoles/L
Procedure: (§4) The binding of the 41 biotinylated peptides as set forth in Table 7 (peptide set 2) to the mouse monoclonal antibodies (PO# series) was assessed as follows: b) Assay 2 (radioimrnunoassay, RIA) using iodinated human inhibin A as tracer. Mabs (at an appropriate dilution, see above) were incubated with iodinated human recombinant inhibin in the presence of biotinylated peptides (0.8 and 0.08 micromoles/L final concentration) overnight at room temperature.

PO-12 [6] = experiment: RIA of Set 2 peptides with PO-12; format: binding, mouse; set-up: key: ΦΦΦ strong effect; +, Φ weak effect; a) limited binding; conditions: Set 2 biotinylated peptides 0.8 and 0.08 micromoles/L
Procedure: as §4

As #128 [7] = experiment: Solid phase assay (Assay 1): biotinylated peptides binding to As #128; set-up: species or system sheep; key: +++++ major contribution; + minor contribution; conditions: relative contribution
Procedure: (§5) This assay is a broad screen of the binding of the 31 biotinylated peptides to As #41 and #128 as recommended by Chiron Mimotopes.
(§6) The biotinylated peptides were initially bound to streptavidin-coated 96-well plates (2 hours at room temperature), antiserum #41 or #128 was then added (2 hours room temperature) to bind to the peptides. Detection of antiserum binding was assessed by a further incubation with an anti-ovine IgG serum labeled with the enzyme, horseradish peroxidase. The enzyme activity was assessed by conversion of a colorless substrate to a colored product that is detected in a spectrophotometer. The enzyme activity measured was proportional to the extent of the binding of the peptides.

As #128 [8] = experiment: Competitive 2-site assay (Assay 3), approach (a); format: binding, sheep; set-up: key: +++++ major contribution; + minor contribution; conditions: relative contribution
Excerpt: (§7) This assay was developed to establish the relative importance of the individual peptides and peptide pools (identified as epitopes in Assays 1 and 2) in the sandwich antibody format used in the IFMA with As #128 as capture antibody and As #41 as detection antibody. Two approaches (a and b) were considered, Approach (a) explores the cross-reaction of peptides with inhibin for the immobilized As #128 while Approach (b) assesses their cross-reaction with inhibin for As #41.
Approach (a). The biotinylated peptide pools and/or individual peptides at various concentrations, in combination with a fixed concentration of hr-inhibin, were incubated for 2 hours with As #128-coated plates. The plates were then washed to remove any unbound material. Iodinated As #41 was then added to bind to the bound hr-inhibin, the plates washed and the bound radioactivity was measured in a gamma counter. The counts measured were proportional to the amount of hr-inhibin bound to both antisera. The possibility that a peptide contained two epitopes capable of linking As #128 and #41 was assessed in the absence of added hr-inhibin.

As #128 [9] = experiment: Two-site assay design: peptides pre-incubated with As #128 coated plate; format: binding, sheep; conditions: non-biotinylated peptides 0.1-1 micromolar
Procedure: On the other hand, the IFMA design is based on the total amount of inhibin bound which is a combination of both antibody affinity and concentration. In order to establish to what extent epitopes to these peptides contribute to the overall IFMA, the following two-site assay designs were used.
(i) Peptides #5, #20 and #30 (0, 0.1-1 micromolar) were incubated with the As #128 coated plate for 1.5 hours at RT and the wells washed. The highest dose of peptide used was saturating.
(ii) Hr-Inhibin was then added as a saturating or near saturating dose to the As #128 coated plate and incubated for 2 hours at room temperature and the plate washed.
(iii) Biotinylated As #41 was added to the above wells and incubated for 2 hours at RT. Plates were then washed and counted.

As #41 [10] = experiment: Two-site assay design variation: biotinylated #41 pre-incubated with peptide; format: binding, sheep; conditions: non-biotinylated peptides 0.1-1.0 micromolar
Procedure: (iv) In a variation to the above design, biotinylated #41 was pre-incubated with peptide (0.1-1.0 micromolar) for 1.5 hours at room temperature and then added to the As #128 coated plate pre-bound with inhibin as for (i)-(iii). […] Combination of peptide #5 and #30 led to 74% decrease.

As#128 and/or As#41 = experiment: Inhibin IFMA with pre-immunoabsorption of antisera by peptides; format: binding, sheep
Excerpt: This IFMA is used in the measurement of inhibin in serum from women with ovarian cancer and is presented at this juncture as a reference to the following procedures. The IFMA is a sandwich antibody assay in 96-well microtiter plates. The capture antiserum is As #128 and the labeled antiserum As #41, both raised in sheep to the alpha subunit of human inhibin. Sheep As #128 was also boosted with human recombinant 30-kDa inhibin. The microtiter plates were coated with a caprylic acid IgG cut of antiserum #128. Inhibin standard and serum samples were added and incubated for 2 hours at room temperature. A biotinylated antiserum (As #41) which has been immunopurified by absorption to a column of bovine (alpha)C subunit fusion protein (as previously described, Robertson et al., 1997, supra) followed by elution with a glycine (pH 2.5) buffer, was added to bind to the antibody-bound inhibin (2-hour incubation at room temperature). Fluorescently (Eu) labeled-streptavidin that has a high affinity for biotin is added (30 minutes at room temperature) and the Eu-bound streptavidin is counted in a time-resolved fluorimeter. The Eu measured is proportional to the inhibin bound by the two antisera.
As another approach, the competition of combinations of peptides at a maximum saturating dose was assessed in the IFMA (FIGS. 7-9). […] This suppression in binding provides a measure of the contribution of that particular epitope to the assay.

As #41 [11] = experiment: Solid phase assay (Assay 1): biotinylated peptides binding to As #41; set-up: species or system sheep; key: +++++ major contribution; + minor contribution; conditions: relative contribution
Procedure: as §5, §6

As #41 [12] = experiment: Competitive 2-site assay (Assay 3), approach (b); format: binding, sheep; set-up: key to #41 2-site competitive assay Assay 3: +++++ major contribution; + minor contribution
Excerpt: as §7
Approach (b). In this approach, the competition of peptides with the As #41 antiserum using the sandwich antibody format was assessed. Hr-Inhibin was initially incubated with the As #128 coated wells for 1 hour at room temperature. The biotinylated peptide pools and/or individual peptides were incubated together with iodinated As #41 for 1 hour and then added to the inhibin bound As #128 coated plates and incubated for 2 hours at room temperature. Plates were then washed to remove any unbound material and the resulting activity was measured in the gamma counter.

PO-14 [13] = experiment: RIA of Set 2 peptides with PO-14; format: binding, mouse; set-up: key: ΦΦΦ strong effect; +, Φ weak effect; a) limited binding; conditions: Set 2 biotinylated peptides 0.8 and 0.08 micromoles/L
Procedure: as §4

Substance	PO-12 SPB (PO-12 [3])	PO-14 SPB (PO-14 [4])	suppression in binding with As #128 (As #128 [9])	As#41 ED50 (As #41 [1]) [nmol/mL]	As#128 ED50 (As #128 [2]) [nmol/mL]	As#1989 ED50 (As #1989; biotinylated peptides) [nmol/mL]	PO-12 RIA (PO-12 [6])	ED50 values As#41 (As #41 [1]) [nmol/mL]	ED50 values As#128 (As #128 [2]) [nmol/mL]	ED50 values As#1989 (As #1989) [nmol/mL]	inhibition with biotinylated #41 pre-incubated with peptide (As #41 [10])	further results
SGSG TPAQPYSLLPGAQP [Peptide 23]	+++	+++		6.2	0.5	>2.5	ΦΦΦ					PO-14 RIA (PO-14 [5]): ΦΦ
SGSG GTMRPLHVRTTSDG [Peptide 28]				4	0.625	>2.5						#41 Antibody screen Assay 1 (As #41 [11]): +
SGSG LPGAQPCCAALPGT [Peptide 25]	+++	+++		5	2	>2.5	ΦΦΦ					PO-14 RIA (PO-14 [13]): ΦΦΦ
SGSG ETVPNLLTQHCACI [Peptide 33]				4	2.5	>2.5						#41 2-site competitive assay Assay 3 (As #41 [12]; relative contribution): +

Now from value to substance, other results behind:

PO-12 SPB (PO-12 [3])	PO-14 SPB (PO-14 [4])	suppression in binding with As #128 (As #128 [9])	Substance	As#41 ED50 (As #41 [1]) [nmol/mL]	As#128 ED50 (As #128 [2]) [nmol/mL]	As#1989 ED50 (As #1989; biotinylated peptides) [nmol/mL]	PO-12 RIA (PO-12 [6])	ED50 values As#41 (As #41 [1]) [nmol/mL]	ED50 values As#128 (As #128 [2]) [nmol/mL]	ED50 values As#1989 (As #1989) [nmol/mL]	inhibition with biotinylated #41 pre-incubated with peptide (As #41 [10])	further results
		23%	SGSG PNLSLPVPGAPPTP [Peptide 20]	3.6	0.02	>2.5		>5	0.15	>5	no inhibition	#128 Antibody screen Assay 1 (As #128 [7]): +; #128 2-site competitive assay Assay 3 (As #128 [8]): +; % suppression at 2ng inhibin (As#128 and/or As#41; As#128 coating antibody pre-absorbed with peptide(s), As#41 label: buffer): 13%
		no suppression at all	SGSG RTTSDGGYSFKYET [Peptide 30]	2.5	0.6	<0.01		>5	>5	2.5	25-30%	ED50 with As #1989 (As #1989; biotinylated peptides): < 0.01 nmol/mL; affinity to rabbit antiserum #1989 (As #1989; in words): high affinity; blocking of As #41 binding to the inhibin-As#128 complex (As #41 [12]; biotinylated peptide pools or peptides incubated with iodinated As #41): 50%; % suppression at 2ng inhibin (As#128 and/or As#41; As#41 label pre-absorbed with peptide, As#128 coating antibody: buffer): 28%

Reference: patent publication US7511123B2, “Immuno-interactive fragments of the alpha-C subunit of inhibin” (Prince Henry's Institute of Medical Research, priority 1999, dated 2009)
